Data on 18 molecules can be found in ChEMBL document CHEMBL5291721, “A preclinical secondary pharmacology resource illuminates target-adverse drug reaction associations of marketed drugs” (Nat Commun, 2023).

Each structure is given as a SMILES string.

The target of assay [1] is D(3) dopamine receptor (Homo sapiens, UniProt P35462).
Assay [2] has as its target T1, Thromboxane A2 receptor (Homo sapiens, UniProt P21731).
T1 sequence (P21731 whole entry): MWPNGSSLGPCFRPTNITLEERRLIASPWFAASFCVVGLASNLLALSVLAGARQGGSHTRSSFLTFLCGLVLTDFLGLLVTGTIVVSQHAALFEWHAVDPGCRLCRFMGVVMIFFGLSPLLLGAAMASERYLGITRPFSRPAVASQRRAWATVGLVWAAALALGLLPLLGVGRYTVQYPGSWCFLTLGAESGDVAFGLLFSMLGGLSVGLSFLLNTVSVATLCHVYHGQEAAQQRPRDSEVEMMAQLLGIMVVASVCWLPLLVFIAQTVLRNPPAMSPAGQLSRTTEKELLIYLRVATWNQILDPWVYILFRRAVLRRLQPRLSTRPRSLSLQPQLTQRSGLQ
Type of assay: functional, cell-based.

In assay [3] the target is T2, Muscarinic acetylcholine receptor M1 (Homo sapiens, UniProt P11229).
T2 sequence (P11229 whole entry): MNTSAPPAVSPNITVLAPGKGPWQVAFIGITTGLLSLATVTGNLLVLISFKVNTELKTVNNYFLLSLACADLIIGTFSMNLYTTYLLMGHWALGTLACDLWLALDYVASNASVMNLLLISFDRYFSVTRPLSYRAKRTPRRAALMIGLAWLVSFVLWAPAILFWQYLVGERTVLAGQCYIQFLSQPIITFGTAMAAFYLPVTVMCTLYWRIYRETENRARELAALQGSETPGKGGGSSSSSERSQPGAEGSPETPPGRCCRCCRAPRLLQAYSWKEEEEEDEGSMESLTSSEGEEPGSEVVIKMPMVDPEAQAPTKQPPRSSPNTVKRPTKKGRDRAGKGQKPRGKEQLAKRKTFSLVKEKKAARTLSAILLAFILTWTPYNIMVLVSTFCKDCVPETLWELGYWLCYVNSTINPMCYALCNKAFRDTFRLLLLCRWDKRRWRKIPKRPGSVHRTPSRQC
Type of assay: functional, cell-based.

In assay [4] the target is T3, Muscarinic acetylcholine receptor M2 (Homo sapiens, UniProt P08172).
T3 sequence (P08172 whole entry): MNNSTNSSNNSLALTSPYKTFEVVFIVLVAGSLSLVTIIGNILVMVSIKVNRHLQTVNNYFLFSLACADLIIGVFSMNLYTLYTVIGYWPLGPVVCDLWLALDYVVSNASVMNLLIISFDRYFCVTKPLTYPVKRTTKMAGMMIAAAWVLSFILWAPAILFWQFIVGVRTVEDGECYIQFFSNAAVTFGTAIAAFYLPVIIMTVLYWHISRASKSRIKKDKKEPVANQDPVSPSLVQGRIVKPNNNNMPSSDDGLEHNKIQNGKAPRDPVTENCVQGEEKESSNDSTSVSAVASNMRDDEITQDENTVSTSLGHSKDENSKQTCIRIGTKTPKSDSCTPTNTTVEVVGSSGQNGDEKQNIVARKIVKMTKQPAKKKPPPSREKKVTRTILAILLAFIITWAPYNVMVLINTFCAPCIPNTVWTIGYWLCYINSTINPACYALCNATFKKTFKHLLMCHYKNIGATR

For assay [5], the target named is Acetylcholinesterase (Homo sapiens, UniProt P22303). Type of assay: functional.
Assay [6] addresses T1, Thromboxane A2 receptor. It is filed as functional, cell-based. The source holds these as a separate data set.
Assay [7] has as its target Prostaglandin G/H synthase 1 (Homo sapiens, UniProt P23219). Type of assay: functional.
Assay [8] has as its target Histamine H3 receptor (Homo sapiens, UniProt Q9Y5N1).
Assay [9] has as its target Mu-type opioid receptor (Homo sapiens, UniProt P35372).
Assay [10] addresses Histamine H2 receptor (Homo sapiens, UniProt P25021). It is filed as functional, cell-based.
The target of assay [11] is Histamine H1 receptor (Homo sapiens, UniProt P35367).
Assay [12] addresses Sodium-dependent dopamine transporter (Homo sapiens, UniProt Q01959).
The target of assay [13] is Muscarinic acetylcholine receptor M3 (Homo sapiens, UniProt P20309).
Assay [14] addresses Sodium-dependent serotonin transporter (Homo sapiens, UniProt P31645).
Further: assay procedure not described here.

Sequence of Histamine H3 receptor (Q9Y5N1 whole entry): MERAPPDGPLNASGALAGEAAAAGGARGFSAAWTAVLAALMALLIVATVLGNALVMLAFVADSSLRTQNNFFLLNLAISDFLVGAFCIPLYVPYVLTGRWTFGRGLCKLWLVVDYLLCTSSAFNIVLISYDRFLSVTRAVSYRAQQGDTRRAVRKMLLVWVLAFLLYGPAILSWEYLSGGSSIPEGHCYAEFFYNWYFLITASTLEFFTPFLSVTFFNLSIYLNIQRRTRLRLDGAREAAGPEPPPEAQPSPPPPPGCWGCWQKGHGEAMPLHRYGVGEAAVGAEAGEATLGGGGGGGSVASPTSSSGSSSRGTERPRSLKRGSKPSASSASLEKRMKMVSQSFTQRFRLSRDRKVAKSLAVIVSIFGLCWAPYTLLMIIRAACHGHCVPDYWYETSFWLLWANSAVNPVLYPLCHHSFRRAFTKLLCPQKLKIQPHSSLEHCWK
Sequence of Prostaglandin G/H synthase 1 (P23219 whole entry): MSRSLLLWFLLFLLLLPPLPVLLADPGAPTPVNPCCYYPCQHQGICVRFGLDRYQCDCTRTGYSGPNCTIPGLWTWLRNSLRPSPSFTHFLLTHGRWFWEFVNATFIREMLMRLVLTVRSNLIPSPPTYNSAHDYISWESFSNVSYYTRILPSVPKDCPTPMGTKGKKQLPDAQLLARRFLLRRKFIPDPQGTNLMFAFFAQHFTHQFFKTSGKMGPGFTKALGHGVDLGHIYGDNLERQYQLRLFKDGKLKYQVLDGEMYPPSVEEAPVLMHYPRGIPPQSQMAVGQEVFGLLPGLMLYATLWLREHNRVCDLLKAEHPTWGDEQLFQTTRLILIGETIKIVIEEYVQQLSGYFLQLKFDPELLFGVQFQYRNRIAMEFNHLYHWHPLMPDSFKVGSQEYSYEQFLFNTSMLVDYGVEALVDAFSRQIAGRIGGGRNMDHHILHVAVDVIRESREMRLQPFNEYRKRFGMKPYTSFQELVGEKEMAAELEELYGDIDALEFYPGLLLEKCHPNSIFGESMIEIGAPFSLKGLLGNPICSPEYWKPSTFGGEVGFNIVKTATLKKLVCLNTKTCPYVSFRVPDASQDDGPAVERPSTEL
Sequence of Acetylcholinesterase (P22303 whole entry): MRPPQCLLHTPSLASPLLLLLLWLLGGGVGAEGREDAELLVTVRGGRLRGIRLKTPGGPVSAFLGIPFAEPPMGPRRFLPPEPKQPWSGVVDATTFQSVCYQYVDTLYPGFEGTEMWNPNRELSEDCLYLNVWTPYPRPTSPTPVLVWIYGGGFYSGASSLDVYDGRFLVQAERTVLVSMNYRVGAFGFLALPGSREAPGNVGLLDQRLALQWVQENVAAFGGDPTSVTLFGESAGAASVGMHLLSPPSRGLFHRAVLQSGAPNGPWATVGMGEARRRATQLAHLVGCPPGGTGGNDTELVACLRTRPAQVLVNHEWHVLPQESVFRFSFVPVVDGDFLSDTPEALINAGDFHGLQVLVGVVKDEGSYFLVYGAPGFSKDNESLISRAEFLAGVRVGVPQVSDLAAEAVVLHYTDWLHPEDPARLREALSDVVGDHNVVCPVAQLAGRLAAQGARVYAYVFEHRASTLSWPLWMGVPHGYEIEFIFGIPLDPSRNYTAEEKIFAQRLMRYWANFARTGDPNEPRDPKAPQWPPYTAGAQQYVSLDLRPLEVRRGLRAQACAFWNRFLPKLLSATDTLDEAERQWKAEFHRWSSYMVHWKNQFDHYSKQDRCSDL
Sequence of D(3) dopamine receptor (P35462 whole entry): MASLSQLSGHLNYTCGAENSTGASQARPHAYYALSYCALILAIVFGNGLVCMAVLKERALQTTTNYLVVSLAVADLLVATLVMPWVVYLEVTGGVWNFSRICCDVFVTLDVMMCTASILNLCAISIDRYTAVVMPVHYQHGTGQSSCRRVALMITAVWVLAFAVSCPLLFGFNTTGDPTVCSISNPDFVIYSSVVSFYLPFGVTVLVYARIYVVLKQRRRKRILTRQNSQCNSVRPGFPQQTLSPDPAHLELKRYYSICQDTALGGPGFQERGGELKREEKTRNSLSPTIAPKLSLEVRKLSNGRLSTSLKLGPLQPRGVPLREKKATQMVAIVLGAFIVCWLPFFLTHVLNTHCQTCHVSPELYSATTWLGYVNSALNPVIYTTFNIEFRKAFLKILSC
Sequence of Muscarinic acetylcholine receptor M3 (P20309 whole entry): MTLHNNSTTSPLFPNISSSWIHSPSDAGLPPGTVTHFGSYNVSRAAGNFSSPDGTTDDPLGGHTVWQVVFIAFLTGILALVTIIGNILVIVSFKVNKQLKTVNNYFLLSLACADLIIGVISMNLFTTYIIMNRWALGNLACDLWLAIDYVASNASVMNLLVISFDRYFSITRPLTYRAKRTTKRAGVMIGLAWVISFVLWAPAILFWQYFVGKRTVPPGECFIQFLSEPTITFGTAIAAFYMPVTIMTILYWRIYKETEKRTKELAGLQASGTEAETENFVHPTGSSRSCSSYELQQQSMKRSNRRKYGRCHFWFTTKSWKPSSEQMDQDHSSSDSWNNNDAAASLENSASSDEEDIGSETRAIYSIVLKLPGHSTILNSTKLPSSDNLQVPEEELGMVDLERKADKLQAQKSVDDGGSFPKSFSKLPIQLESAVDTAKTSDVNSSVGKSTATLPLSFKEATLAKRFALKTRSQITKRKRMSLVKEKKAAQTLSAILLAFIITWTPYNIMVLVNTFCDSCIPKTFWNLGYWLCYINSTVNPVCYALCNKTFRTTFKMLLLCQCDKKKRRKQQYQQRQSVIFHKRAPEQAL
Sequence of Mu-type opioid receptor (P35372 whole entry): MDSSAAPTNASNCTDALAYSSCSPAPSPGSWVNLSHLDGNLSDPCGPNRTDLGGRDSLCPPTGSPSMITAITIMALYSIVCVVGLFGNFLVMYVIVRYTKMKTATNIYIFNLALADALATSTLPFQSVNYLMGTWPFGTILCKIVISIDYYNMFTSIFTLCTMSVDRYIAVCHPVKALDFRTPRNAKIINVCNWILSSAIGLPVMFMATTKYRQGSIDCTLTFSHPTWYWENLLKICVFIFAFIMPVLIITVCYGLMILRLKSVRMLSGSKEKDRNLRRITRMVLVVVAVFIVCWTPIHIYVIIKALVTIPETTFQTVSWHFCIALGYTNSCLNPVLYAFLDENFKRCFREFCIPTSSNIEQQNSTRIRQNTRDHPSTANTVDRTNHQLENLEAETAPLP
Sequence of Sodium-dependent dopamine transporter (Q01959 whole entry): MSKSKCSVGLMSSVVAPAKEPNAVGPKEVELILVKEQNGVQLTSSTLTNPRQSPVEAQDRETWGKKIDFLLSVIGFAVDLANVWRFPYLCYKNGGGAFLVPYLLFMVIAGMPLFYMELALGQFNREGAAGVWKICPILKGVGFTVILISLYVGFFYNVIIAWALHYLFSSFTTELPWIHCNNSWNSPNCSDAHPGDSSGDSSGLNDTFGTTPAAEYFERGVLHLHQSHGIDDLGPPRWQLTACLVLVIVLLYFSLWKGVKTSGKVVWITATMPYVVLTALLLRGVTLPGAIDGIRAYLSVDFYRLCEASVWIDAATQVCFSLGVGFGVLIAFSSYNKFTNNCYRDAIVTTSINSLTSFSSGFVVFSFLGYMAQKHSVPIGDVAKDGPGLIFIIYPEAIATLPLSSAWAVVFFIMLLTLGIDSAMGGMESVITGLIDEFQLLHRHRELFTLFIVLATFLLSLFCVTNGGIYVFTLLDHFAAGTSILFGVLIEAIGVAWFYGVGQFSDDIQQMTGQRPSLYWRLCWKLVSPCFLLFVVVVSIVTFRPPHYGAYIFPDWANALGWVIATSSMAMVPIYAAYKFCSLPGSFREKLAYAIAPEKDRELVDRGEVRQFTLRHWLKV
Sequence of Histamine H2 receptor (P25021 whole entry): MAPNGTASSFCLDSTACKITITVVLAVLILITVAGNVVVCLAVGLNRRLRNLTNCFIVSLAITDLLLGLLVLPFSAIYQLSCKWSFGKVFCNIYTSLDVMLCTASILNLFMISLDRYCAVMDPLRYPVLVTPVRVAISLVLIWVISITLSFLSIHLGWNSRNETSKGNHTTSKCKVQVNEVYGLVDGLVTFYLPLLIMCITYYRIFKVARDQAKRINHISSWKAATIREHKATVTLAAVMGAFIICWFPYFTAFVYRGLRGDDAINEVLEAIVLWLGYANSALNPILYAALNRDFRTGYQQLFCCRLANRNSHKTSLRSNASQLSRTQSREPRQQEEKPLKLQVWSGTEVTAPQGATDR
Sequence of Sodium-dependent serotonin transporter (P31645 whole entry): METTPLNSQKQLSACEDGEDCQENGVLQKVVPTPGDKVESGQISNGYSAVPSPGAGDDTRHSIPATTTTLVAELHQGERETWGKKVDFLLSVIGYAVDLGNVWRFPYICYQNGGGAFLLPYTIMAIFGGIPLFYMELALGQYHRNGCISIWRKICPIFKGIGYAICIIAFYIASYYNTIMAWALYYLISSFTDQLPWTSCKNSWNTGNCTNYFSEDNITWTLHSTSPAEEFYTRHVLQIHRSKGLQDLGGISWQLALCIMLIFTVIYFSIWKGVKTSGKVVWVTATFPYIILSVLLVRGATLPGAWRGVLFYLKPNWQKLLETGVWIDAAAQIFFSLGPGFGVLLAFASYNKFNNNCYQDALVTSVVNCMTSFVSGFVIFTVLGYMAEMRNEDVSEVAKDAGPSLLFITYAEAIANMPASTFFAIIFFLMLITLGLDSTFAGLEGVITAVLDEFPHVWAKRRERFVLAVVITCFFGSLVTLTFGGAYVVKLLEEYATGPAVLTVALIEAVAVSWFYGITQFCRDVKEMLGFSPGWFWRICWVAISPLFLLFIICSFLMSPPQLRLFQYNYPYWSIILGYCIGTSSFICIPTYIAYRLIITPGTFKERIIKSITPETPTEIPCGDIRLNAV

For `C[C@@H](CN1CC(=O)NC(=O)C1)N1CC(=O)NC(=O)C1` [DEXRAZOXANE], the AC50 in assay [1], in assay [2], in [3], in [4], in assay [5] and in assay [6] was over 30 µM each time. The AC50 in [7] was 2.16 µM; in assay [8] it was over 30 µM.
`C[C@]12CC[C@@H]3c4ccc(OC(=O)N(CCCl)CCCl)cc4CC[C@H]3[C@@H]1CC[C@@H]2OP(=O)(O)O` [ESTRAMUSTINE PHOSPHATE]: the AC50 in assay [1], in assay [2], in [3], in assay [4], in [5] and in [6] was over 30 µM in each case. In addition, the AC50 in assay [7] and in [8] was over 30 µM in each case.
As for `O=C(O)[C@H](O)[C@@H](O)[C@H](O)[C@H](O)CO` [GLUCONIC ACID], the AC50 in [1], in assay [2], in assay [3], in assay [4], in [5] and in [6] was over 30 µM in each case. The AC50 in assay [7] and in [8] was over 30 µM each time.
Regarding `N=C(N)NCC1COc2ccccc2O1` (centres undefined) [GUANOXAN], the AC50 was 8.54 µM in assay [1]; over 30 µM in assay [2]; over 30 µM in assay [3]; over 30 µM in [4]; over 30 µM in assay [5]; 19.9 µM in [6]. In addition, the AC50 in assay [7] and in assay [8] was over 30 µM throughout.
For the molecule `N#Cc1ccnc(N2C(=O)CC[C@H]2C(=O)N(c2cncc(F)c2)[C@H](C(=O)NC2CC(F)(F)C2)c2ccccc2Cl)c1` [IVOSIDENIB], the AC50 in assay [1], in [2], in [3], in assay [4], in assay [5] and in assay [6] was over 30 µM each time. For the same molecule, the AC50 in [7] and in assay [8] was over 30 µM in each case.
As to `CCCCCCO[C@@H](C)c1cccc(-c2csc(NC(=O)c3cc(Cl)c(/C=C(\C)C(=O)O)c(Cl)c3)n2)c1OC` [LUSUTROMBOPAG], the AC50 in assay [1] is 8.41 µM; in [2] it was over 30 µM; in [3], 16.2 µM; in [4], over 30 µM; in assay [5] it was over 30 µM; in [6] it was 14.2 µM. The values for the AC50 in assay [7] and in assay [8] were 2.15 µM and 15.1 µM, respectively.
For the molecule `Cc1cc(C)cc(OCC2CNC(=O)O2)c1` (centres undefined) [METAXALONE], the AC50 in [1], in assay [2], in assay [3], in assay [4], in assay [5] and in assay [6] was over 30 µM throughout. The AC50 in assay [7] and in assay [8] was over 30 µM each time.
As to `CO[C@@]1(NC(=O)C(C(=O)O)c2ccc(O)cc2)C(=O)N2C(C(=O)O)=C(CSc3nnnn3C)CO[C@@H]21` (some centres undefined) [MOXALACTAM], the AC50 in [1], in assay [2], in [3], in assay [4], in [5] and in assay [6] was over 30 µM each time. The results for the AC50 in assay [7] and in [8] were 9.25 µM and over 30 µM, respectively.
Take `CCCCCCCC/C=C\CCCCCCCC(=O)O` [OLEIC ACID]: the AC50 in [1] was over 30 µM; in assay [2], over 30 µM; in assay [3], 13.2 µM; in assay [4], over 30 µM; in assay [5], over 30 µM; in assay [6], 25.3 µM. In addition, the figures for the AC50 in [7] and in assay [8] were 6.68 µM and over 30 µM, respectively.
For `CC1=C(C/C=C(\C)CCC[C@H](C)CCC[C@H](C)CCCC(C)C)C(=O)c2ccccc2C1=O` [PHYTONADIONE], the AC50 in [1], in assay [2], in assay [3], in assay [4], in assay [5] and in assay [6] was over 30 µM throughout. In addition, the AC50 in assay [7] and in [8] was over 30 µM each time.
Turning to `NC(=O)C1(N2CCCCC2)CCN(CCCC(=O)c2ccc(F)cc2)CC1` [PIPAMPERONE], the AC50 in assay [1] is 1.77 µM; in [2] it was over 30 µM; in assay [3] it was over 30 µM; in assay [4] it was over 30 µM; in assay [5] it was over 30 µM; in [6], over 30 µM. Moreover, the AC50 in [7] was over 30 µM; in assay [8] it was 21.7 µM.
For the molecule `COc1cccc2c1C(=O)c1c(O)c3c(c(O)c1C2=O)C[C@@](O)(C(=O)CO)C[C@@H]3O[C@H]1C[C@H](N)[C@H](O[C@@H]2CCCCO2)[C@H](C)O1` [PIRARUBICIN], the AC50 in [1] is over 30 µM; in assay [2], over 1 µM; in assay [3], over 10 µM; in assay [4], over 30 µM; in assay [5] it was over 10 µM; in [6], over 10 µM. The AC50 was 0.5 µM in [7] and over 30 µM in [8].
With `CC(C)(Oc1ccc(Cl)cc1)C(=O)NC(=O)NCN1CCOCC1` [PLAFIBRIDE], the AC50 in assay [1], in assay [2], in [3], in assay [4], in assay [5] and in assay [6] was over 30 µM each time. The AC50 in assay [7] and in assay [8] was over 30 µM in each case.
On to `CC(C)NC[C@H](O)COc1ccc(O)cc1` [PRENALTEROL], for which the half-maximal activity concentration (AC50) in assay [1], in [2], in assay [3], in assay [4], in [5] and in assay [6] was over 30 µM throughout. Besides, the AC50 was 8.99 µM in [7] and over 30 µM in assay [8].
For the molecule `CN1CCC(N(Cc2cccs2)c2ccccc2)CC1` [THENALIDINE], the AC50 in [1] was 4.46 µM; in [2] it was over 30 µM; in [3] it was 0.762 µM; in assay [4], 0.699 µM; in assay [5] it was over 30 µM; in assay [6], over 30 µM. For the same molecule, the AC50 in assay [7] and in assay [8] was over 30 µM each time.
As to `Cc1ccc(C(C)C)c(O)c1` [THYMOL], the AC50 is over 30 µM in assay [1]; over 30 µM in [2]; 13.9 µM in assay [3]; over 30 µM in assay [4]; over 30 µM in [5]; over 30 µM in [6]. For the same molecule, the AC50 in assay [7] and in assay [8] was over 30 µM in each case.
With `CN(C)CCN(Cc1ccccc1)c1ccccn1` [TRIPELENNAMINE], the AC50 is over 30 µM in [2]; over 30 µM in [9]; over 10 µM in assay [10]; over 30 µM in assay [3]; 0.08 µM in assay [11]; 1.3 µM in assay [12]. In addition, the AC50 in [4] is 4.72 µM; in [5], over 30 µM; in assay [13] it was over 30 µM; in assay [6], over 30 µM; in assay [7], over 30 µM; in assay [8], over 30 µM. This molecule also came in with an AC50 in [14] of 0.209 µM.
As to `Cc1cccc(C)c1NC(=O)c1cc(S(N)(=O)=O)c(Cl)cc1O` [XIPAMIDE], the AC50 in [1], in assay [2], in assay [3], in assay [4], in assay [5] and in assay [6] was over 30 µM throughout. The AC50 in assay [7] and in assay [8] was over 30 µM in each case.
